Measurements published in patent US11718645B2, “Macrocyclic therapeutic agents, methods of manufacture, and methods of treatment” (University of Florida Research Foundation, Incorporated, priority 2014, dated 2023).

Assays:
[1] = Microsomal stability; type: in vitro ADME, mouse
Procedure: HPLC-MS was done on a 3200 QTRAP (Applied Biosystems) equipped with a Shimadzu (Kyoto, Japan) UFLC System. Mouse serum and harmine were purchased from Sigma-Aldrich. Pooled CD1 mouse liver (female) microsomes were purchased from XenoTech, LCC (Lenexa, Kans.) with protein concentrations of 0.5 mg/ml. HCT116 cell lysates were prepared with PhosphoSafe lysis buffer (Novagen). Protein concentration was determined by using the BCA Assay. Analysis was carried out similarly as previously described [Liu, Y.; Salvador, L. A.; Byeon, S.; Ying, Y.; Kwan, J. C.; Law, B. K.; Hong, J.; Luesch. H. J. Pharmacol. Exp. Ther. 2010, 335, 351-361].
The stability of apratoxin A, S4 (BK), S7 (BL), S8 (BM) and S9 (BN) in the presence of mouse microsomes was determined by using an adaptation of a published procedure [Ackley, D. C.; Rockich, K. T.; Baker, T. R. Optimization in Drug Discovery: In Vitro Methods (Series: Methods in Pharmacology and Toxicology) (eds Yan Z, Caldwell J W) 2004, pp 151-162, Springer, New Jersey]. In brief, microsomes were added to prewarmed phosphate buffer (100 mM, pH 7.4) at 37° C. Apratoxin A, BK, BL, BM, or BN (3 μL) were added to the microsomal preparation followed by NADPH cofactor solution (1.3 mM NADP, 3.3 mM glucose 6-phosphate, 0.4 U/mL glucose-6-phosphate dehydrogenase, 3.3 mM MgCl2). The reaction was allowed to proceed for 3 min to 3 h (7 time points) at 37° C. (thermomixer, 1050 rpm). The reaction was quenched by addition of ethyl acetate and subsequently spiked with harmine. The zero time point was defined by denaturing the microsomes with ethyl acetate before the addition of apratoxins. Incubation of apratoxins with microsomes alone was also performed following the same procedure to determine NADPH-dependent metabolism. The final concentration of the incubation mixture contained 0.5 mg/ml protein concentration and 1 μM apratoxins.
(§1) Analysis of apratoxin A, S4 (BK), S7 (BL), S8 (BM) and S9 (BN) was done by using HPLC-MS [column, Onyx Monolithic C18 (3.0×100 mm), Phenomenex (Torrance, Calif.); solvent, water (solvent A) acetonitrile (solvent B); flow rate, 0.5 ml/min; detection by electrospray ionization-MS in positive ion mode (MRM scan)]. A stepwise gradient elution was used starting at 60% B and 40% A, then increasing to 80% B at 5 min and maintained at this condition for 5 min. Parameters were optimized before analysis by using direct syringe infusion. The retention times (tR, min; MRM ion pair) of the analytes and internal standard are as follows: harmine (2.2; 213.1→169.9), apratoxin A (4.7; 841.4→445.2), apratoxin S4 (BK) (4.1; 828.5→432.2), apratoxin S7 (BL) (4.05; 814.5→418.2), apratoxin S8 (BM) (5.2; 842.5→446.2), apratoxin S9 (BN) (4.9; 828.5→432.2). Compound-dependent parameters used were as follows: apratoxin A, declustering potential (DP) 51, entrance potential (EP) 12, collision energy (CE) 45, collision cell exit potential (CXP) 6, collision cell entrance potential (CEP) 32; and harmine, DP 56.0, EP 4.5, CE 44.0, CXP 5, CEP 16.0. Source gas parameters used were as follows: curtain gas, 15.0; collision gas low, ionspray voltage 5500; temperature, 600.0; ion source gas 150.0; ion source gas 2 60.0.
(§2) Calibration curves for apratoxin A, S4 (BK), S7 (BL), S8 (BM) and S9 (BN) in the presence of mouse serum, HCT116 cell lysates, and aqueous solutions were generated by least-square linear regression analysis of the analyte peak area and internal standard peak area ratio against the nominal concentration of the standard solutions. A linear regression analysis was performed, and the concentration of remaining apratoxins at each time point was determined through interpolation for plasma, cellular, and aqueous stability experiments. The amount of remaining apratoxins with microsome incubation was determined from the peak area ratio of apratoxins at tx (3 min to 3 h) and t0. All calculations were done by using Analyst 1.4.2 (Applied Biosystems) Quantitate Mode.

[2] = tested on: met proto-oncogene (MET) receptor; assay: Immunoblot analysis for RTK (MET) levels in HCT116 cells; type: cell-based, human; details: for activity compared with apratoxin S4 (BK) in all biological assays: HCT116, MET levels, cell viability, VEGF-A secretion
Procedure: HCT116 cells were seeded in 6-well plates at a density of 4×10^5 cells and the next day treated with various concentrations of apratoxins or solvent control. 24 h later, whole cell lysates were collected using PhosphoSafe buffer (EMD Chemicals, Inc, Gibbstown, N.J.). The protein concentration was measured with the BCA Protein Assay kit (Thermo Fisher Scientific, Rockford, Ill.). Lysates containing equal amounts of protein were separated by SDS polyacrylamide gel electrophoresis (4-12%), transferred to polyvinylidene difluoride membranes, probed with primary and secondary antibodies, and detected with the SuperSignal West Femto Maximum Sensitivity Substrate (Thermo Fisher Scientific). Anti-Met and secondary anti-mouse antibodies were from Cell Signaling Technology, Inc. (Danvers, Mass.).

[3] = Plasma stability in mouse serum; type: in vitro ADME; details: up to 24 h, FIG. 2C
Procedure: In vitro plasma stability of apratoxin A, S4 (BK), S7 (BL), S8 (BM) and S9 (BN) was done by using a modification of a published method [Chen, X.; Gardner, E. R.; Figg, W. D. J. Chromatogr. B Analyt. Technol. Biomed. Life Sci. 2008, 86, 153-158]. Ten microliters of apratoxin A, BK, BL, BM, or BN (25 μg/mL) were added to 100 μL of mouse serum, and the solution was vortex-mixed for 15 s and incubated for 0.25 min to 24 h (11 time points). At the end of each incubation period, 400 μL of ethyl acetate was added to each tube, followed by 200 μL of harmine to quench the reaction and to extract the remaining apratoxin A or S4 (BK), S7 (BL), S8 (BM) and S9 (BN). Samples were further incubated in a thermomixer at 27° C. (750 rpm, 5 min) and later centrifuged for 5 min at 1643 g. The ethyl acetate layer was collected and evaporated to dryness under nitrogen. Samples were reconstituted in 50 μL of acetonitrile. A volume of 10 μL of the reconstituted solution was injected into the HPLC-MS system.
as §1, with “Compound-dependent parameters used were as follows: apratoxin A, declustering potential (DP) 51, entrance potential (EP) 12, collision energy (CE) 45, collision cell exit potential (CXP) 6, collision cell entrance potential (CEP) 32; and harmine, DP 56.0, EP 4.5, CE 44.0, CXP 5, CEP 16.0. Source gas parameters used were as follows: curtain gas, 15.0; collision gas low, ionspray voltage 5500; temperature, 600.0; ion source gas 150.0; ion source gas 2 60.0.” left out
as §2

| SMILES | % remaining ([1]; microsomes + NADPH, 0 min) [%] | % remaining ([1]; microsomes + NADPH, 3 min) [%] | % remaining ([1]; microsomes + NADPH, 5 min) [%] | % remaining ([1]; microsomes + NADPH, 15 min) [%] | % remaining ([1]; microsomes + NADPH, 30 min) [%] | % remaining ([1]; microsomes + NADPH, 60 min) [%] | % remaining ([1]; microsomes + NADPH, 120 min) [%] | % remaining ([1]; microsomes only, 0 min) [%] | % remaining ([1]; microsomes only, 3 min) [%] | % remaining ([1]; microsomes only, 5 min) [%] | % remaining ([1]; microsomes only, 15 min) [%] | % remaining ([1]; microsomes only, 30 min) [%] | % remaining ([1]; microsomes only, 60 min) [%] | % remaining ([1]; microsomes only, 120 min) [%] | activity compared with apratoxin S4 (BK) in all biological assays [2] | plasma stability [3] | potency in reducing levels of MET receptor ([2]; HCT116, immunoblot, 24 h, FIG. 1) | potency relative to the other apratoxins, MET levels ([2]; HCT116, immunoblot, FIG. 1) |
| --- | --- | --- | --- | --- | --- | --- | --- | --- | --- | --- | --- | --- | --- | --- | --- | --- | --- | --- |
| CC[C@H](C)[C@H]1C(=O)N2CCC[C@@H]2C(=O)O[C@H](C(C)(C)C)C[C@@H](C)C[C@H](O)C(C)(C)C2=N[C@@H](CCC(=O)N[C@@H](Cc3ccc(OC)cc3)C(=O)N(C)[C@@H](C)C(=O)N1C)CS2 [apratoxin S8 (BM), Apratoxin S8] | 100 | 37.20 ± 1.27 | 17.30 ± 2.55 | 8.28 ± 2.86 | 4.83 ± 1.05 | 3.55 ± 0.91 | 5.01 ± 0.23 | 100 | 74.10 ± 9.62 | 77.45 ± 3.18 | 63.45 ± 3.61 | 74.75 ± 8.70 | 81.25 ± 1.91 | 70.05 ± 0.78 | retained potent activity | excellent |  |  |
| CC[C@H](C)[C@H]1C(=O)N2CCC[C@@H]2C(=O)O[C@H](C(C)(C)C)C[C@@H](C)C[C@H](O)CC2=N[C@@H](CCC(=O)N[C@@H](Cc3ccc(OC)cc3)C(=O)N(C)[C@@H](C)C(=O)N1C)CS2 [apratoxin S7 (BL), Apratoxin S7] | 100 | 54.95 ± 4.74 | 18.70 ± 1.41 | 52.40 ± 2.40 | 6.10 ± 1.96 | 5.41 ± 1.09 | 4.30 ± 0.82 | 100 | 66.60 ± 12.30 | 60.50 ± 2.26 | 76.55 ± 9.55 | 54.80 ± 1.56 | 54.50 ± 0.00 | 53.85 ± 9.40 | retained potent activity | excellent |  |  |
| CC[C@H](C)[C@H]1C(=O)N2CCC[C@@H]2C(=O)O[C@H](C(C)(C)C)C[C@@H](C)C[C@H](O)[C@H](C)C2=N[C@H](CCC(=O)N[C@@H](Cc3ccc(OC)cc3)C(=O)N(C)[C@@H](C)C(=O)N1C)CS2 [apratoxin S9 (BN), Apratoxin S9] | 100 | 51.40 ± 8.06 | 17.80 ± 0.28 | 3.55 ± 0.25 | 3.73 ± 0.25 | 6.06 ± 2.40 | 5.63 ± 0.18 | 100 | 83.10 ± 0.42 | 71.40 ± 1.27 | 45.25 ± 5.30 | 56.05 ± 1.06 | 48.45 ± 0.92 | 56.25 ± 0.21 | retained potent activity | excellent | superior, picomolar (sub-nanomolar) potency | 2-3 fold |
